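Following 48 hours of exposure in 96-well plates, responses at five concentrations were used to interpolate endpoints linearly. The concentration for full growth arrest is given as TGI.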

The test system of the assay is P388/ADR leukemia. Description: NCI tumour cell line growth inhibition, 48 h.

Compound `CS(=O)(=O)OCCCNCCCOS(C)(=O)=O` displayed a TGI of 8.33 mM.

For the origin of these results see PubChem BioAssay (NCI).
